Calls of active or inactive are those of the source.
How the values were obtained:
[1] = biological target: Type-1 angiotensin II receptor (Homo sapiens, UniProt P30556); assay: agonist activity at AGTR1 – cell-based, uHTS hits, selectivity assay for APJ receptor agonist project, dose response (AID 488865); format: functional;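 further: beta-arrestin recruitment to AT1 measured by enzyme fragment complementation luminescence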
Cytochrome P450 3A4 = Cytochrome P450 3A4 (Homo sapiens, UniProt P08684);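 further: CYP3A4 tested as one member of a cytochrome P450 panel screen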
[2] = biological target: T1, Intestinal-type alkaline phosphatase (Mus musculus, UniProt P24822); assay: PubChem AID 488874; format: functional
[3] = biological target: T2, Intestinal-type alkaline phosphatase (Homo sapiens, UniProt P09923); assay: activation of human intestinal alkaline phosphatase – biochemical, luminescent, uHTS hits, set 2, dose response (AID 488817); format: functional;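 further: potency of activators that raise enzyme activity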
[4] = biological target: T1, Intestinal-type alkaline phosphatase; assay: PubChem AID 488875; format: functional
[5] = biological target: T3, Alkaline phosphatase, tissue-nonspecific isozyme (Homo sapiens, UniProt P05186); assay: activation of tissue-nonspecific alkaline phosphatase – biochemical, TNAP isozyme, human IAP uHTS hits, selectivity assay for human IAP activator project, dose response (AID 488886); format: functional;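 further: potency of compounds raising TNAP activity as a selectivity check on IAP activators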
T3 sequence (P05186 whole entry): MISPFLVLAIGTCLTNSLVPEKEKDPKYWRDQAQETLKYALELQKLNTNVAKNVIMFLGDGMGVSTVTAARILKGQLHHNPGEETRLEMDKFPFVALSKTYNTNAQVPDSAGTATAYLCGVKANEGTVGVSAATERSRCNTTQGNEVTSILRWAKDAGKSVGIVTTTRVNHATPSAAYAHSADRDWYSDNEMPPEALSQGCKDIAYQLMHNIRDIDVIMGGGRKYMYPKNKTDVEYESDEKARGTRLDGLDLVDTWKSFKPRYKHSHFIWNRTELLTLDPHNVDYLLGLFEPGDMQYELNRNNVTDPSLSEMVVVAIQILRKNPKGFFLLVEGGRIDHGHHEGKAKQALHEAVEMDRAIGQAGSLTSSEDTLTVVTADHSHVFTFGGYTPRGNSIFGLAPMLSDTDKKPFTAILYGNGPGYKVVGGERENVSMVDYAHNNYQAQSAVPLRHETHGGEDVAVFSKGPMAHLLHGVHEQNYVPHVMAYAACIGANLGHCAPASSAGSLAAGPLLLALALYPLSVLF

[6] = biological target: T2, Intestinal-type alkaline phosphatase; assay: human intestinal alkaline phosphatase activators, dose response, biochemical, luminescence, uHTS hits (AID 463120); format: functional
Perilipin-1/ABHD5 = Perilipin-1/ABHD5 (Homo sapiens, UniProt O60240+Q8WTS1); assay: Luminescence-based biochemical high throughput dose response assay for inhibitors of the interaction of the lipase co-activator protein, abhydrolase domain containing 5 (ABHD5) with perilipin-1 (PLIN1) (2K validation set). [Related pubchem assays (depositor defined):AID493027, AID493057]
[7] = biological target: 1-acylglycerol-3-phosphate O-acyltransferase ABHD5/Perilipin-5 (Homo sapiens, UniProt Q00G26+Q8WTS1); assay: Luminescence-based biochemical high throughput dose response assay for inhibitors of the interaction of the lipase co-activator protein, abhydrolase domain containing 5 (ABHD5) with perilipin-5 (MLDP; PLIN5) (2K validation set). [Related pubchem assays (depositor defined):AID493035, AID493241]
Mucolipin-3 = biological target: T4, Mucolipin-3 (Homo sapiens, UniProt Q8TDD5); assay: Fluorescence counterscreen assay for […] agonists: dose response cell-based high-throughput screening assay to identify agonists of the transient receptor potential channel ML3 (TRPML3). [Related pubchem assays: 1424, 1448 ]; format: functional
T4 sequence (Q8TDD5 whole entry): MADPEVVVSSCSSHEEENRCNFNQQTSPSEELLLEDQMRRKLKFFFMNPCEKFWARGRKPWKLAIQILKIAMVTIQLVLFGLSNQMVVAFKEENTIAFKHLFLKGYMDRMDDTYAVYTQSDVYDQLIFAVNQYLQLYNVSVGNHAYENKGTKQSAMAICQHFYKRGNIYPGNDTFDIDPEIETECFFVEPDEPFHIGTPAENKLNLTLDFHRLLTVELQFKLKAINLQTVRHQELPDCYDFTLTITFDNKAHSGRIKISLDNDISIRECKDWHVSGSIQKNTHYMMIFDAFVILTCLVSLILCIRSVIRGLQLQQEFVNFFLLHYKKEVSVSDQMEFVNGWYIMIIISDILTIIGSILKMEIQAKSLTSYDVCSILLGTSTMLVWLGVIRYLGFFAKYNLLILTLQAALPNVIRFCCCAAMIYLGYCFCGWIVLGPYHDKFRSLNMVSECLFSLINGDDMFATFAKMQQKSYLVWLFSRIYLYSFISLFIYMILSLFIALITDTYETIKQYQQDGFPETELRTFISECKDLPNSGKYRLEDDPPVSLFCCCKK

Ion channel NompC = Ion channel NompC (Danio rerio, UniProt Q7T1G6); assay: Dose response cell-based high-throughput screening assay for agonists of the transient receptor potential channel N1 (TRPN1). [Related pubchem assays (depositor defined):AID1424, AID1448]; format: functional
[8] = biological target: G-protein coupled receptor 55 (Homo sapiens, UniProt Q9Y2T6); assay: selective activators of receptor GPR55 – imaging, U2OS cells, beta-arrestin-GFP redistribution, primary screen (AID 1961); format: functional
[9] = biological target: Sphingosine 1-phosphate receptor 4 (Homo sapiens, UniProt O95977); assay: potency of S1P4 activators – cell-based, fluorescence, synthesized compounds, late-stage follow-up (AID 463107); format: functional
[10] = biological target: T5, Short transient receptor potential channel 4 (Mus musculus, UniProt Q9QUQ5); assay: potentiation of DAMGO-evoked TRPC4 calcium signal – cell-based, HEK293 TRPC4/mu-opioid, Fluo-4 calcium, EC20 DAMGO, dose response (AID 434941); format: functional
T5 sequence (Q9QUQ5 whole entry): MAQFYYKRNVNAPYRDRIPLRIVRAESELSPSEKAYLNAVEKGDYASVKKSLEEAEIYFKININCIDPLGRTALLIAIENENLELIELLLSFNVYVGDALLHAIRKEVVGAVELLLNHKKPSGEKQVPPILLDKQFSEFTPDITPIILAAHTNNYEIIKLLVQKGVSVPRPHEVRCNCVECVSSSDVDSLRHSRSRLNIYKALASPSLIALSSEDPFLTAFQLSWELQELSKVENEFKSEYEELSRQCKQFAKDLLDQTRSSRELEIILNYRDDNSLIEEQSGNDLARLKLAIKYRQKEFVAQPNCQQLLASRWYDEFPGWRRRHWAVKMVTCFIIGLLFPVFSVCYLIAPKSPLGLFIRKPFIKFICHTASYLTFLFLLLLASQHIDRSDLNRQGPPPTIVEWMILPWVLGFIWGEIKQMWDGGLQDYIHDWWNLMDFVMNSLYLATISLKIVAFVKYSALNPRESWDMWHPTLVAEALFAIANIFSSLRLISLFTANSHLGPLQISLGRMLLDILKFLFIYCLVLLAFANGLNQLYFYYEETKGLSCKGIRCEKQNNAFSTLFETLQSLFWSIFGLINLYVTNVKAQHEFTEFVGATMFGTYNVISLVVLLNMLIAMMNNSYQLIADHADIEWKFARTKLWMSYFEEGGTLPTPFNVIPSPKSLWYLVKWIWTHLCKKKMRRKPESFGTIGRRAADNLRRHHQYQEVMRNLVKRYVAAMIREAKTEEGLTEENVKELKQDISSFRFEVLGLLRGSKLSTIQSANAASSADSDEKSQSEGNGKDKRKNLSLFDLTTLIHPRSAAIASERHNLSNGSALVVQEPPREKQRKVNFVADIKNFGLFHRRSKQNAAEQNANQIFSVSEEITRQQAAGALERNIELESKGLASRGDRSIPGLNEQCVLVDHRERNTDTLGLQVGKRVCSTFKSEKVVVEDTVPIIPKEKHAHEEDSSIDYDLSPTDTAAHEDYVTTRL

Troponin, cardiac muscle = Troponin, cardiac muscle (Homo sapiens, UniProt P19429+P45379+P63316); assay: Fluorescence-based biochemical high throughput dose response assay for activators of the calcium sensitivity of cardiac Regulated Thin Filaments (RTF). [Related pubchem assays (depositor defined):AID493008, AID493018, AID504382, AID504383]; format: protein-complex assay
[11] = viability loss in HEK293 cells – cell-based, plate reader, cherry-picked samples, cytotoxicity control, dose response (AID 743446); format: functional
Wee1-like protein kinase = Wee1-like protein kinase (Homo sapiens, UniProt P30291); assay: Dose Response Cell-based Assay for Inhibitors of Wee1 Degradation. [Related pubchem assays: 1410, 1321 ]; format: functional
[12] = HepG2 cell cytotoxicity, dose response, cytotoxicity control for non-replicating M. tuberculosis project (AID 489018); format: functional; conditions: Mycobacterium tuberculosis
cells = format: functional
[13] = reduction of Shn3 3'UTR-driven luciferase in osteoblasts – cell-based, Clone20 osteoblasts, firefly luciferase, cherry-picked, dose response (AID 624132); format: functional;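 further: firefly luciferase luminescence from reporter carrying the Shn3 3'UTR in osteoblasts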
[14] = non-specific 3'UTR reporter inhibition in Clone20-Shn3RL – cell-based, Renilla luciferase, cherry-picked, counter-screen for Shn3 inhibitor project, dose response (AID 624133); format: functional
[15] = biological target: T6, Heat shock factor protein 1 (Mus musculus, UniProt P38532); assay: decrease of HSF1-responsive luciferase luminescence – cell-based, NIH3T3, dose retest, confirmation (AID 2382); format: functional;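 further: NIH3T3 fibroblasts with HSF1-driven luciferase reporter stressed by proteasome inhibitor MG132; luminescence from HSF1-driven luciferase expression after 8 hours of MG132 stress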
T6 sequence (P38532 whole entry): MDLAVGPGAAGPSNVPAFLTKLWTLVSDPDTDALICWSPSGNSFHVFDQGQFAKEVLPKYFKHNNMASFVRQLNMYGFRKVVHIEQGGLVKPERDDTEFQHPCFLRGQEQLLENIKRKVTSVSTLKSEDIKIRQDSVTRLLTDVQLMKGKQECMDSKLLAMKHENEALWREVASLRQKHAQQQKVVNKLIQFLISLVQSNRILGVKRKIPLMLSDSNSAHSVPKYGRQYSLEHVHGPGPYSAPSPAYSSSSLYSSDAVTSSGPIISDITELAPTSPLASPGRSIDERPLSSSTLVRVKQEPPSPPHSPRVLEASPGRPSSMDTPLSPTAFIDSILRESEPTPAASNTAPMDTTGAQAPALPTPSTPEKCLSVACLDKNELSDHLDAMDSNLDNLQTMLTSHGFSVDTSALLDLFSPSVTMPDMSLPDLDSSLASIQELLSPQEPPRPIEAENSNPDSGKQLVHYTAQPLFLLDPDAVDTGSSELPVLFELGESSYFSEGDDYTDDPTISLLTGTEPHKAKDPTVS

[16] = biological target: G2/mitotic-specific cyclin-B1 (Homo sapiens, UniProt P14635); assay: Counterscreen assay for inhibitors of Wee1 degradation: dose response cell-based assay to identify inhibitors of cyclin B degradation. [Related pubchem assays: 1410, 1321 ]; format: functional
[17] = HEK-293T viability loss after treatment – luminescence, T-cell screen hits, cytotoxicity control for TCR NF-kB inhibitor project, dose response (AID 489026); format: functional, cell-based;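 further: cells exposed to compound about 14 hours before the viability readout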
[18] = toxicity toward HepG2 liver cells – cell-based, plate reader, cherry-pick, antagonist series, cytotoxicity control, dose response (AID 743416); format: functional
[19] = loss of viability in HepG2 cells – cell-based, CellTiter-Glo, cherry-picked, cytotoxicity control for Shn3 inhibitor project, dose response (AID 624134); format: functional
[20] = blockade of melanocortin 4 receptor signaling – cell-based, plate reader, cherry pick, counter-screen for LGR2 antagonist project, dose response (AID 743444); format: functional;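 further: transfected HEK 293 cells stimulated with alpha-MSH peptide; potency of inhibitors of the alpha-MSH evoked signal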
[21] = A549 cell cytotoxicity, dose response, cytotoxicity control, plate reader, cherry-pick, antagonist series (AID 743412); format: functional, cell-based
[22] = blockers of bursicon-stimulated LGR2 cAMP reporter – cell-based, HEK293, CRE-luciferase reporter, cherry pick, set 2, dose response (AID 743343); format: functional;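 further: transfected cells were stimulated with diluted bursicon conditioned medium after compound addition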
[23] = THP-1 cell cytotoxicity, dose response, cytotoxicity control for non-replicating M. tuberculosis project (AID 489025); format: functional
HeLa = assay: Cytotoxicity counterscreen assay for transcriptional activators of heat shock protein 70 (Hsp70). [Related pubchem assays: 1203, 1252 ]; format: functional; conditions: Homo sapiens
[24] = Vero E6 cell cytotoxicity, dose response, cytotoxicity control for non-replicating M. tuberculosis project, secondary assay (AID 492998); format: functional, VeroE6; conditions: Vero C1008

T1 sequence (P24822 whole entry): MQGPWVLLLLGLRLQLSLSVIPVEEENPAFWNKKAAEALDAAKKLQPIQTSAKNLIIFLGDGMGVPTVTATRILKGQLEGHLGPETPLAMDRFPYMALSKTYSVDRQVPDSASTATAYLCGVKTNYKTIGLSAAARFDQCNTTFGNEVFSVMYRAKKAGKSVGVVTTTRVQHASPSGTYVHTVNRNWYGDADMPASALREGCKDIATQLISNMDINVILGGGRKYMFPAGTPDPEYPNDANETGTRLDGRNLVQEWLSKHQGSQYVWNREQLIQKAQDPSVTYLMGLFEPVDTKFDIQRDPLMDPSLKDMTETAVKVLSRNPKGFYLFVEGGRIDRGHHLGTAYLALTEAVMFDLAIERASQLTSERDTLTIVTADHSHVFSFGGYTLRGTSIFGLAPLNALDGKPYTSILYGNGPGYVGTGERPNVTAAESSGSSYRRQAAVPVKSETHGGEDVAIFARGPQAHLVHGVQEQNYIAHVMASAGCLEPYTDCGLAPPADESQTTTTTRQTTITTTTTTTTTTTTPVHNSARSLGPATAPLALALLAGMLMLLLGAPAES
T2 sequence (P09923 whole entry): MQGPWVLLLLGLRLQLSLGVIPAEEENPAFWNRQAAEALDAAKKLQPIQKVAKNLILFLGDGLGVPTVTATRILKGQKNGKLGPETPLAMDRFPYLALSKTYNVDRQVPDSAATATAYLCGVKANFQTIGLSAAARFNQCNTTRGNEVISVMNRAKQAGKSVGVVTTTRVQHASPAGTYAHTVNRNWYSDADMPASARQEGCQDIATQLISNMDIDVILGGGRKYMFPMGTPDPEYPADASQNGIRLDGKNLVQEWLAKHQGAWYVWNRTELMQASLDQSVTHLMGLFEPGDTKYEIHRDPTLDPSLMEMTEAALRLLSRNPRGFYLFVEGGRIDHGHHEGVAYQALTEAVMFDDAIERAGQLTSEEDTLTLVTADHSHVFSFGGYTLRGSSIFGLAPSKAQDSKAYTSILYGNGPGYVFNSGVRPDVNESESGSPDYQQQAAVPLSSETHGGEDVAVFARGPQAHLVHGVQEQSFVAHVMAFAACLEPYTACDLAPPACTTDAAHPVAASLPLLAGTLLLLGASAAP
Sequence of Perilipin-1/ABHD5 (Q8WTS1 whole entry, the tested form may be a part): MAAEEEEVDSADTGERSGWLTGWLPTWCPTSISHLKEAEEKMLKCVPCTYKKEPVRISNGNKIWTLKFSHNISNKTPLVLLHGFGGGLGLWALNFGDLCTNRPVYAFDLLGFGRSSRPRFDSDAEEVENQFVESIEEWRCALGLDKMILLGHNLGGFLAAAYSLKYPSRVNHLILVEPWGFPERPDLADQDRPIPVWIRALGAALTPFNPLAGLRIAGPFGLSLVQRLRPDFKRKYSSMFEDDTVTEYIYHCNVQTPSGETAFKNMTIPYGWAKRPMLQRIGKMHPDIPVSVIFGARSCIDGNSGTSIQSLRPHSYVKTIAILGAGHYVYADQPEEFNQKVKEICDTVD
Sequence of Perilipin-1/ABHD5 (O60240 whole entry, the tested form may be a part): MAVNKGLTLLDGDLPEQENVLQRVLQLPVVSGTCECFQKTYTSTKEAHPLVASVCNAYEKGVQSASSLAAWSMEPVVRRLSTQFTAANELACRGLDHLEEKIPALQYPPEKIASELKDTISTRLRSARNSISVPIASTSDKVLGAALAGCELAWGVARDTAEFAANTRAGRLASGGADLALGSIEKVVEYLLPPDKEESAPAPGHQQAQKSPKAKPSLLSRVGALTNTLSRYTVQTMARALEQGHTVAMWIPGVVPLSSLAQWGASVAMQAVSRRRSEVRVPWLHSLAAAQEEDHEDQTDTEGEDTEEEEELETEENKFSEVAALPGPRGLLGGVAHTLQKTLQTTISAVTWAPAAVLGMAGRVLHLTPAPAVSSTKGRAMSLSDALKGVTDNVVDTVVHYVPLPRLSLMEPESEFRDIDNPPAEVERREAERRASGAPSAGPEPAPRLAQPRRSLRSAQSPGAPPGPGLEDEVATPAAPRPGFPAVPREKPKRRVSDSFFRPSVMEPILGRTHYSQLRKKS
Sequence of 1-acylglycerol-3-phosphate O-acyltransferase ABHD5/Perilipin-5 (Q00G26 whole entry, the tested form may be a part): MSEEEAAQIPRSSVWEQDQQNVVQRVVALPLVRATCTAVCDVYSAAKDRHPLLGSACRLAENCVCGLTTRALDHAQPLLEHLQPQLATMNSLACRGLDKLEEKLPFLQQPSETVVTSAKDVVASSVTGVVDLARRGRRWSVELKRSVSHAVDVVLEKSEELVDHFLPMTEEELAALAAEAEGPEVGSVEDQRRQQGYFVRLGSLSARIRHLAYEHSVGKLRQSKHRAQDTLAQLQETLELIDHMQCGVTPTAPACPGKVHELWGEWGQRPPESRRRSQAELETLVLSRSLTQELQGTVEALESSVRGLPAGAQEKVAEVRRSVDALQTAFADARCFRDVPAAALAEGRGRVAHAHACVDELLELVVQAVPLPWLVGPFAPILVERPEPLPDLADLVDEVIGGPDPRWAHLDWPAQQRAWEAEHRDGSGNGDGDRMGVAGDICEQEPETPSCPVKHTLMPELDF
Sequence of 1-acylglycerol-3-phosphate O-acyltransferase ABHD5/Perilipin-5 (Q8WTS1 whole entry, the tested form may be a part): as the sequence (Q8WTS1 whole entry, the tested form may be a part) above
Sequence of Wee1-like protein kinase (P30291 whole entry): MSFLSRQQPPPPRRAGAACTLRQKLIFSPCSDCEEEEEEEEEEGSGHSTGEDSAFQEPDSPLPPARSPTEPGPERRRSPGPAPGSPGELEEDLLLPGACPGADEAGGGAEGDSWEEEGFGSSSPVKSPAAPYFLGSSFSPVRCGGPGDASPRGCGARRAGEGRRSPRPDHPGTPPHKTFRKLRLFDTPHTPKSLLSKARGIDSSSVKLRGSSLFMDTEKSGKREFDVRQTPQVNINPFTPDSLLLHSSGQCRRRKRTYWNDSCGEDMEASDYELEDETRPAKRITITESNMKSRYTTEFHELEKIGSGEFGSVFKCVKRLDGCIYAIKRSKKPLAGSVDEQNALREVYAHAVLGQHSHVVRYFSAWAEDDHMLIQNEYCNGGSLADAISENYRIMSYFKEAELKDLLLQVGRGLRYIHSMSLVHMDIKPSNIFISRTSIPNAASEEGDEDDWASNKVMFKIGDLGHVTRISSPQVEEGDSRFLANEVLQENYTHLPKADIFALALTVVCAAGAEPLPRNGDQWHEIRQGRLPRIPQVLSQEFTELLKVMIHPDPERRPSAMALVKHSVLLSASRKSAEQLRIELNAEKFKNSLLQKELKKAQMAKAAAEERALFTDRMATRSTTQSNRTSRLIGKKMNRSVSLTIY
Sequence of Type-1 angiotensin II receptor (P30556 whole entry, the tested form may be a part): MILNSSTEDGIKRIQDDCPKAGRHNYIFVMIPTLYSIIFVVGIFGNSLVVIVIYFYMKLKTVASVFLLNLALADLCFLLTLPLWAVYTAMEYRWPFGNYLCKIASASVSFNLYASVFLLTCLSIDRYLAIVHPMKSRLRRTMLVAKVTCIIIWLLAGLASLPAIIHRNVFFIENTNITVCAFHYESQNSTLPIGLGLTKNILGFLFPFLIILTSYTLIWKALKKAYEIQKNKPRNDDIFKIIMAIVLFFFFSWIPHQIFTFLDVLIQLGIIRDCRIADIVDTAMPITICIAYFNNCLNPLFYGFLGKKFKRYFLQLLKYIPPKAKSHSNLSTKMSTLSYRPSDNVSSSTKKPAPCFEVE
Sequence of Sphingosine 1-phosphate receptor 4 (O95977 whole entry): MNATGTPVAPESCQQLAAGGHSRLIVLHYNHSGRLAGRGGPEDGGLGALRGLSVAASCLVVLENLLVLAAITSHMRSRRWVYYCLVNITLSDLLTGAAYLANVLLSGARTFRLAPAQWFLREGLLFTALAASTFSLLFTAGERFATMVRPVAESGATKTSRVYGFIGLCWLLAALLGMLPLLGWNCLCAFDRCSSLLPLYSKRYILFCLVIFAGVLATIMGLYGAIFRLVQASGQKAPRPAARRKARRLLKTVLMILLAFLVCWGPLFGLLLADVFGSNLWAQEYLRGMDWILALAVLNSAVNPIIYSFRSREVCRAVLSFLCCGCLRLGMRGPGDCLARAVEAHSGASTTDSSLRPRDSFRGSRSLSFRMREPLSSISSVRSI
Sequence of G2/mitotic-specific cyclin-B1 (P14635 whole entry): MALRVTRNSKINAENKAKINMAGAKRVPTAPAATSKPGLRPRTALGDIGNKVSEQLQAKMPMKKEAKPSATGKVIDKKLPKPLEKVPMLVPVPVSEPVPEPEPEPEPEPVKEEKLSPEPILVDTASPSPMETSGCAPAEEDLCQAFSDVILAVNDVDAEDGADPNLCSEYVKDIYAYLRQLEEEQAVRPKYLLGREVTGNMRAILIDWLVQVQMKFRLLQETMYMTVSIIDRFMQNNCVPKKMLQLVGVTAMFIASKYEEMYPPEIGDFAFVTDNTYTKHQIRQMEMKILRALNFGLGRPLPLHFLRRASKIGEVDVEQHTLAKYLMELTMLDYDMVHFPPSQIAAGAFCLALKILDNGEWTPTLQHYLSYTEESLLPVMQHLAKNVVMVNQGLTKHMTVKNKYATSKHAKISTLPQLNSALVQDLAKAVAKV
Sequence of Cytochrome P450 3A4 (P08684 whole entry): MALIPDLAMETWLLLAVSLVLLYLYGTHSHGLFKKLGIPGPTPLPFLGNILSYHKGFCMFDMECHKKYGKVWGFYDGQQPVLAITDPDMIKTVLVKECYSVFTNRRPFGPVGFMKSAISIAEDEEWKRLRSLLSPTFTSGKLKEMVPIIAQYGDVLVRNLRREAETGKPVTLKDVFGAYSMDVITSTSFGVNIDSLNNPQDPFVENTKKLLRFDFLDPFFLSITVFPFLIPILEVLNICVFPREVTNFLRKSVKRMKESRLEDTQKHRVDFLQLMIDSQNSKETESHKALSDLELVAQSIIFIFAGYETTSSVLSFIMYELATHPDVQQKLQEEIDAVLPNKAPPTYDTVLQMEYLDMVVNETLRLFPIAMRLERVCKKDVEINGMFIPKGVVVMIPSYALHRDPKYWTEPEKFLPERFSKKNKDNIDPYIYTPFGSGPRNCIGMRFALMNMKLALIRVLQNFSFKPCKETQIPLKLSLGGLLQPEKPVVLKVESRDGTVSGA

## CCOc1cc2[nH]c(=S)n(CCC(=O)N3CCc4ccccc4C3)c(=O)c2cc1OCC
[1]
  EC50: > 100 µM (inactive)
Cytochrome P450 3A4
  AC50: 3.55 µM (inconclusive)

## CC(NS(=O)(=O)c1ccc(Br)cc1)C(=O)Nc1nc2ccccc2[nH]1 (configuration not stated)
[2]
  IC50: > 100 µM (inactive)
[3]
  EC50: 13.3 µM (active)
[4]
  EC50: > 100 µM (inactive)
[5]
  EC50: 14.3 µM (active)
[6]
  EC50: 11 µM (active)

## CCOC(=O)C(=Cc1ccccc1OC)C(=O)OCC
Perilipin-1/ABHD5
  IC50: 11.5 µM (inactive)
[7]
  IC50: 15.3 µM (inactive)

## COC(=O)c1cccc(NC(=O)Nc2ccc(Cl)cc2)c1
Mucolipin-3
  EC50: > 29.9 µM (not active)
Ion channel NompC
  EC50: > 29.9 µM (inactive)

## COc1cc(S(=O)(=O)N2CCOCC2)ccc1NC(=O)c1cc2c(s1)CCC2
[8]
  EC50: 2.83 µM (active)

## Cc1ccc(C#N)c(OCCOc2ccc(Cl)cc2Cl)n1
[9]
  EC50: > 50 µM (inactive)

## Cc1cccc(/C=N/NC(=O)c2cccc(Cl)c2)n1
[10]
  EC50: 5.31 µM (active)

## COC(=O)C(=N/Nc1ccccc1C(=O)OC)/C(C)=N/O
Troponin, cardiac muscle
  EC50: > 71.5 µM (inactive)

## O=C1C=CC(O)(c2cc(=O)c3c(O)cc(O)cc3o2)C=C1 [PROTOAPIGENONE]
[11]
  AC50: 5.13 µM (active)
Wee1-like protein kinase
  EC50: > 1.84 µM (active)
[12]
  CC50: 5.74 µM (active)
cells
  IC50: 3.02 µM (active)
[13]
  AC50: 5.12 µM (active)
[14]
  AC50: 4.47 µM (active)
[15]
  EC50: 4.28 µM (active)
[16]
  EC50: > 1.84 µM (active)
[17]
  IC50: > 80 µM (inactive)
[18]
  AC50: 7.09 µM (active)
[19]
  AC50: 32.3 µM (active)
[20]
  AC50: 27.1 µM (active)
[21]
  AC50: 6.31 µM (active)
[22]
  AC50: 21.4 µM (active)
[23]
  CC50: 2.6 µM (active)
HeLa
  CC50: > 1.22 µM (not active)
[24]
  CC50: 3.28 µM (active)
